Activity calls are given as the source filed them. The calls are words filed in the database; no cut-off is given here. Non-standard residues stand in square brackets, D forms with d. Residues, ends and D or L forms follow the SMILES beside them. Orn = NCCC[C@H](N)C(=O)O
Tests used:
Acinetobacter baumannii [1] = test: In vivo antibacterial activity against Acinetobacter baumannii ATCC19606 infected in BALB/c mouse assessed as reduction in bacterial load in abdominal cavity at 15 mg/kg, ip measured after 12 hrs; format: functional, organism-based
Cell membrane [2] = test: Induction of cell membrane permeabilization in Escherichia coli ATCC 25922 by propidium iodide dye-based fluorescence assay; format: subcellular
Escherichia coli [3] = test: Antimicrobial activity against Escherichia coli ATCC 25922 assessed as reduction in microbial growth incubated for 18 hrs by broth microdilution method; format: functional
[4] = Hemolytic activity at human Erythrocyte assessed as hemolysis at 100 microg/ml; format: toxicity, cell-based; conditions: erythrocytes, at 100 µg/mL, read-out: Activity
RAW264.7 = test: Cytotoxicity against mouse RAW264.7 cells upto 200 microg/ml by MTT assay; format: toxicity, cell-based; conditions: dose < 200 µg/ml
Enterococcus faecium = test: Antimicrobial activity against Enterococcus faecium 34 assessed as reduction in microbial growth incubated for 18 hrs by broth microdilution method; format: functional
Cell membrane [5] = test: Induction of cell membrane permeabilization in Staphylococcus aureus CMCC 26003 at 5 times MIC measured for 1 hr by propidium iodide dye-based fluorescence assay; format: subcellular
Pseudomonas aeruginosa = test: Antimicrobial activity against Pseudomonas aeruginosa CMCC10104 assessed as reduction in microbial growth incubated for 18 hrs by broth microdilution method; format: functional
Acinetobacter baumannii [6] = test: Antimicrobial activity against Acinetobacter baumannii ATCC 19606 assessed as fold increase in MIC incubated for 18 hrs in presence of LPS; format: functional
Acinetobacter baumannii [7] = test: Antimicrobial activity against Acinetobacter baumannii ATCC19606 assessed as reduction in microbial growth incubated for 18 hrs by broth microdilution method; format: functional
Acinetobacter baumannii [8] = test: In vivo antibacterial activity against Acinetobacter baumannii ATCC19606 infected in BALB/c mouse assessed as reduction in bacterial load in liver at 15 mg/kg, ip measured after 12 hrs; format: functional, organism-based
Escherichia coli [9] = test: Antibacterial activity against Escherichia coli ATCC 25922 at 1 times MIC in presence of 25 microg/ml exogenous DNA; format: functional, organism-based
Escherichia coli [10] = test: Antimicrobial activity against Escherichia coli ATCC 25922 assessed as fold increase in MIC incubated for 18 hrs in presence of LPS; format: functional
[11] = Acute toxicity in BALB/c mouse assessed as mortality at 15 mg/kg, iv measured for 24 hrs; format: organism-based; conditions: in vivo, read-out: Activity
Cell membrane [12] = test: Induction of outer membrane permeabilization in Escherichia coli ATCC 25922 at 5 times MIC measured for 1 hr by NPN-dye based fluorescence analysis; format: subcellular
Cell membrane [13] = test: Induction of cell membrane permeabilization in Escherichia coli ATCC 25922 at 2 times MIC measured for 1 hr by propidium iodide dye-based fluorescence assay; format: subcellular
Staphylococcus aureus [14] = test: Antibiofilm activity against Staphylococcus aureus CMCC 26003 assessed as biofilm eradication at 0.5 to 2 times MIC incubated for 24 hrs by crystal violet staining based analysis; format: functional
Trypsin = Trypsin (Homo sapiens, UniProt P07477+P07478+P35030); test: Stability of compound assessed as trypsin (unknown origin) mediated drug degradation […] measured at 24 hrs by RP-HPLC analysis; format: ADME, protein assay; conditions: read-out: Activity
Staphylococcus aureus [15] = test: Antimicrobial activity against Staphylococcus aureus CMCC 26003 assessed as fold increase in MIC incubated for 18 hrs in presence of CCCP; format: functional
Acinetobacter baumannii [16] = test: Antipersister-activity against Acinetobacter baumannii ATCC 19606 assessed as elimination of persister cells at 4 times MIC preincubated adherent persistent cells with colistin incubation for 24 hrs; format: functional
Salmonella enteritidis = test: Antimicrobial activity against Salmonella enterica subsp. enterica serovar Enteritidis ATCC 14028 assessed as reduction in microbial growth incubated for 18 hrs by broth microdilution method; format: functional
Acinetobacter baumannii [17] = test: In vivo antibacterial activity against Acinetobacter baumannii ATCC19606 infected in BALB/c mouse assessed as survival at 15 mg/kg, ip administered for 12 hrs and measured on day 7; format: functional; conditions: for survival at 15 mg/kg: ATCC19606, 168 h, time 7 day
Escherichia coli [18] = test: Antimicrobial activity against Escherichia coli ATCC 25922 measured at 8 hrs in presence of mouse serum; format: functional, organism-based
Acinetobacter baumannii [19] = test: Antipersister-activity against Acinetobacter baumannii ATCC 19606 assessed as elimination of persister cells at 8 times MIC preincubated adherent persistent cells with colistin incubation for 24 hrs; format: functional
Acinetobacter baumannii [20] = test: Antibiofilm activity against Acinetobacter baumannii ATCC 19606 assessed as inhibition of biofilm formation at 4 to 8 times MIC incubated for 48 hrs by crystal violet staining based analysis; format: functional
Staphylococcus aureus [21] = test: Antibiofilm activity against Staphylococcus aureus CMCC 26003 assessed as reduction in biofilm formation at 0.5 to 8 times MIC incubated for 24 hrs by crystal violet staining based analysis; format: functional; design: scale not given: the % may be the effect or the level left
Staphylococcus aureus [22] = test: Antimicrobial activity against Staphylococcus aureus CMCC 26003 assessed as fold increase in MIC measured at 8 hrs in presence of mouse serum; format: functional
Escherichia coli [23] = test: Antimicrobial activity against Escherichia coli ATCC 25922 incubated for 18 hrs in presence of CCCP; format: functional, organism-based
Escherichia coli [24] = test: Antimicrobial activity against Escherichia coli ATCC 25922 assessed as bacterial eradication at 5 times MIC measured within 30 mins; format: functional, organism-based
Escherichia coli [25] = test: Bactericidal activity against Escherichia coli ATCC 25922 at 5 times MIC measured within 120 mins; format: functional, organism-based
Staphylococcus aureus [26] = test: Antimicrobial activity against Staphylococcus aureus CMCC 26003 incubated for 18 hrs in presence of CCCP; format: functional, organism-based
Escherichia coli [27] = test: Antimicrobial activity against Escherichia coli ATCC 25922 assessed as fold increase in MIC incubated for 18 hrs in presence of cardiolipin; format: functional
Escherichia coli [28] = test: Antimicrobial activity against Escherichia coli ATCC 25922 assessed as fold increase in MIC measured at 8 hrs in presence of mouse serum; format: functional
Acinetobacter baumannii [29] = test: Antimicrobial activity against Acinetobacter baumannii ATCC 19606 assessed as fold increase in MIC incubated for 18 hrs in presence of phosphatidylglycerol; format: functional
Acinetobacter baumannii [30] = test: Antimicrobial activity against Acinetobacter baumannii ATCC 19606 assessed as fold increase in MIC incubated for 18 hrs in presence of cardiolipin; format: functional
Staphylococcus aureus [31] = test: Antimicrobial activity against Staphylococcus aureus CMCC 26003 assessed as bacterial eradication at 5 times MIC measured within 120 mins; format: functional, organism-based
Escherichia coli [32] = test: Antimicrobial activity against Escherichia coli ATCC 25922 assessed as fold increase in MIC incubated for 18 hrs in presence of phosphatidylglycerol; format: functional

Compound | Activity (Cell membrane [2]) | MIC (Escherichia coli [3]) | hemolysis at 100 microg/ml [4] | Activity (RAW264.7) | MIC (Enterococcus faecium) | MIC (Pseudomonas aeruginosa) | MIC (Acinetobacter baumannii [7]) | Activity (Acinetobacter baumannii [8]) | Activity (Escherichia coli [9]) | mortality at 24 h [11] | Activity (Cell membrane [12]) | Activity (Cell membrane [13]) | Activity (Staphylococcus aureus [14]) | metabolised at 24 h (Trypsin) | fold change (FC) (Staphylococcus aureus [15]) | MIC (Salmonella enteritidis) | survival at 15 mg/kg (Acinetobacter baumannii [17]) | further results
CC[C@H](C)[C@H](NC(=O)[C@H](CCCN)NC(=O)[C@H](CO)NC(=O)[C@H](Cc1c[nH]cn1)NC(=O)[C@H](CCCN)NC(=O)[C@H](CC(C)C)NC(=O)[C@@H](NC(=O)[C@H](CCCN)NC(=O)CNC(=O)[C@H](CC(C)C)NC(=O)[C@H](CCC(N)=O)NC(=O)[C@H](CCCN)NC(=O)[C@H](CCCN)NC(=O)[C@@H](NC(=O)[C@H](CCCN)NC(=O)[C@H](CCCN)NC(=O)[C@@H](N)Cc1ccccc1)C(C)C)C(C)C)C(=O)N[C@H](C(=O)N[C@H](C(=O)NCC(=O)NCC(=O)N[C@@H](CCCN)C(=O)N[C@@H](CCSC)C(=O)N[C@@H](CCCN)C(=O)N[C@@H](Cc1ccccc1)C(=O)O)C(C)C)[C@@H](C)O (H-F[Orn][Orn]V[Orn][Orn]QLG[Orn]VL[Orn]HS[Orn]ITVGG[Orn]M[Orn]F-OH) | Dose-dependent-effect | 9.38 µg/mL | < 5% | Non-toxic | 9.38 µg/mL | 75 µg/mL | 9.38 µg/mL | Active | inactive | 0% | 100% | > 90% | 20% | < 60% | 32 | 37.5 µg/mL | 40% | Activity (Acinetobacter baumannii [1]): Active; Activity (Cell membrane [5]): 24.6%; fold change (FC) (Acinetobacter baumannii [6]): 16; fold change (FC) (Escherichia coli [10]): 16; Activity (Acinetobacter baumannii [16]): 74.5%
CC[C@H](C)[C@H](NC(=O)[C@@H](CCCNC(=N)N)NC(=O)[C@H](CO)NC(=O)[C@H](Cc1c[nH]cn1)NC(=O)[C@@H](CCCNC(=N)N)NC(=O)[C@H](CC(C)C)NC(=O)[C@@H](NC(=O)[C@@H](CCCNC(=N)N)NC(=O)CNC(=O)[C@H](CC(C)C)NC(=O)[C@H](CCC(N)=O)NC(=O)[C@@H](CCCCN)NC(=O)[C@@H](CCCNC(=N)N)NC(=O)[C@@H](NC(=O)[C@@H](CCCCN)NC(=O)[C@@H](CCCCN)NC(=O)[C@@H](N)Cc1ccccc1)C(C)C)C(C)C)C(=O)N[C@H](C(=O)N[C@H](C(=O)NCC(=O)NCC(=O)N[C@H](CCCNC(=N)N)C(=O)N[C@@H](CCSC)C(=O)N[C@H](CCCNC(=N)N)C(=O)N[C@@H](Cc1ccccc1)C(=O)O)C(C)C)[C@@H](C)O |  | 18.8 µg/mL | < 5% |  | 75 µg/mL | > 100 µg/mL | 18.8 µg/mL | Active | inactive | 0% | 100% |  |  | < 60% | 32 | 37.5 µg/mL |  | Activity (Escherichia coli [18]): inactive; Activity (Acinetobacter baumannii [19]): 97.1%; inhibition (INH) (Acinetobacter baumannii [20]): 80%; Activity (Acinetobacter baumannii [17]; time 7.0 day): Active
CC[C@H](C)[C@H](NC(=O)[C@H](CCCNC(=N)N)NC(=O)[C@H](CO)NC(=O)[C@H](Cc1c[nH]cn1)NC(=O)[C@H](CCCNC(=N)N)NC(=O)[C@H](CC(C)C)NC(=O)[C@@H](NC(=O)[C@H](CCCNC(=N)N)NC(=O)CNC(=O)[C@H](CC(C)C)NC(=O)[C@H](CCC(N)=O)NC(=O)[C@H](CCCCN)NC(=O)[C@H](CCCNC(=N)N)NC(=O)[C@@H](NC(=O)[C@H](CCCCN)NC(=O)[C@H](CCCCN)NC(=O)[C@@H](N)Cc1ccccc1)C(C)C)C(C)C)C(=O)N[C@H](C(=O)N[C@H](C(=O)NCC(=O)NCC(=O)N[C@@H](CCCNC(=N)N)C(=O)N[C@@H](CCSC)C(=O)N[C@@H](CCCNC(=N)N)C(=O)N[C@@H](Cc1ccccc1)C(=O)O)C(C)C)[C@@H](C)O | Dose-dependent-effect | 2.34 µg/mL | < 5% | Non-toxic | 18.8 µg/mL | 4.69 µg/mL | 4.69 µg/mL | Active |  | 0% |  | > 90% | 20% |  |  | 1.17 µg/mL | 40% | Activity (Staphylococcus aureus [21]): 40%; fold change (FC) (Staphylococcus aureus [22]): 16; Activity (Escherichia coli [23]): Dose-dependent-effect; Activity (Escherichia coli [24]): Active; Activity (Escherichia coli [25]): Active; Activity (Staphylococcus aureus [26]): Dose-dependent-effect; fold change (FC) (Escherichia coli [27]): 8; fold change (FC) (Escherichia coli [28]): 8; fold change (FC) (Acinetobacter baumannii [29]): 16; fold change (FC) (Acinetobacter baumannii [30]): 8; Activity (Staphylococcus aureus [31]): Active; fold change (FC) (Escherichia coli [32]): 16

— ChEMBL document CHEMBL6078680, “Improving the Stability and Anti-Infective Activity of Sea Turtle AMPs Using Multiple Structural Modification Strategies” (J Med Chem, 2024)
